Measurements taken from publication PMC9124818 (Pharmacology Research & Perspectives, 2022).
Like-named read-outs stand apart in the source and are kept apart here.

Assays:
OATP1B1 = target: T1, OATP1B1 (Homo sapiens, UniProt Q9Y6L6); experiment: Transporter inhibition, uptake of [3H]-estradiol-17β-glucuronide in HEK293 cells; format: in vitro ADME
T1 construct: host or cells: HEK293
T1 sequence (Q9Y6L6 1-691): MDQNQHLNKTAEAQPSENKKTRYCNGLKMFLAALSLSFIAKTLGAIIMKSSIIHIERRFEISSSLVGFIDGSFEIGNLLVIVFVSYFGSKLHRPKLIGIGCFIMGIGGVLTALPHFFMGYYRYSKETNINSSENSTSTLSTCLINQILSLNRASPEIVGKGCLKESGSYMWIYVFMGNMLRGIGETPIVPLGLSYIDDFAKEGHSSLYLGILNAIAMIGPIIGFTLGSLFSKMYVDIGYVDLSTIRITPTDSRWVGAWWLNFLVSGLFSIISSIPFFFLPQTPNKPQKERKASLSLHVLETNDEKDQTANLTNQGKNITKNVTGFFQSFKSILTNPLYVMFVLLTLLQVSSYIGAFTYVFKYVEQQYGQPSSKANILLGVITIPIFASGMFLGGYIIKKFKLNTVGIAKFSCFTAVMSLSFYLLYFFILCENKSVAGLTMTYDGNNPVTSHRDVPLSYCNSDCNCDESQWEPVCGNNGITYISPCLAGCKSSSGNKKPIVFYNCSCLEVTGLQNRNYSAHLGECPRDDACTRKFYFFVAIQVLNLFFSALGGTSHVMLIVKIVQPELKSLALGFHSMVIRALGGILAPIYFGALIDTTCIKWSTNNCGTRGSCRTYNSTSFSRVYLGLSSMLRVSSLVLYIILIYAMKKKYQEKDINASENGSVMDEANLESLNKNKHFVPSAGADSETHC
Experimental: (§1) The test compound (FFA or nFFA) or the positive control substrate ([…], respectively) was added to the donor chamber. […] Cells were then washed, lysed with scintillation cocktail, and analyzed for the probe substrate with a MicroBeta scintillation counter (PerkinElmer, Hopkinton, MA). Transcellular transporter assay conditions are described in Supplemental Table 1. Calculation of IC50 values was based on bidirectional permeability of probe substrate with and without the inhibitor in MDCKII cells expressing BCRP and in Caco‐2 cells expressing P‐gp, and transporter‐dependent uptake of probe substrate in HEK293 cells expressing all other transporters (Supplemental Table 1).
(§2) The transporter-specific uptake of the probe substrate in cells was determined by subtracting the accumulation in the control cells from the accumulation in the transporter-expressing cells.

CYP2B6 mRNA = experiment: CYP450 induction in cultured human hepatocytes, mRNA by qRT-PCR; format: cell-based; conditions: for CYP2B6 induction (abstract): cultured human hepatocytes; for Basic kinetic model: R3: per FDA Guidance (2020); for EC50 at 3 days: human, cultured cryopreserved hepatocytes; for EC50 at 3 days / Basic kinetic model: Emax (fold) / EC50: ± standard error; for EC50 at 3 days / EC50: read-out: Basic kinetic model: EC50; for Fold‐change method: Fold change: highest dose tested (40 µM fenfluramine, 50 µM norfenfluramine); for Fold‐change method: % of control: percent of positive control induction of mRNA; for Basic kinetic model: Emax (fold): fit of fold‐change −1 values
Experimental: Cells were then harvested to isolate RNA, which was analyzed by quantitative reverse transcription‐polymerase chain reaction (qRT‐PCR) for induction of CYP1A2, CYP2B6, and CYP3A4 mRNA levels. Total RNA was phase extracted with TRIzol followed by purification with an RNeasy Mini Kit (Qiagen Inc., Germantown, MD). Quantitative PCR was performed in triplicate with a 7900HT Fast Real Time PCR System, an Applied Biosystems Universal Master Mix, and TaqMan® Gene Expression Assays. The quantity of target cDNA relative to control cDNA (GAPDH) was determined by the ΔΔCT method (Applied Biosystems User Bulletin #2). Relative quantitation measures the change in mRNA expression in a test sample relative to that in the control sample (i.e., DMSO). This method assumes that the efficiency of target amplification and the efficiency of endogenous control amplification are approximately equal.
mRNA assessment was conducted using a quantitative reverse transcription-polymerase chain reaction (qRT-PCR) according to the Applied Biosystems protocol. Each PCR was performed in triplicate. A Primer Mix was prepared for each Gene Expression assay. A typical Primer Mix contained TaqMan Fast Advanced Master Mix (1X), Gene Expression Assay (1X, 900 nM forward and reverse primers) and ribonuclease (RNase)-free water. The Reaction Mix was prepared by adding the Primer Mix to cDNA. A percentage of samples (no less than 10%) included NACs. […] The relative quantity of the target cDNA compared with that of the control cDNA (GAPDH) was determined by the ΔΔCt method (Applied Biosystems User Bulletin #2). Relative quantitation measures the change in mRNA expression in a test sample relative to that in a control sample (eg, dimethyl sulfoxide [DMSO]). This method assumes that the efficiency of the target amplification and the efficiency of the endogenous control amplification are approximately equal.
This software analyzes relative gene expression using the comparative Ct method (ΔΔCt), which relates the PCR signal of the target transcript to the PCR signal of the target in an untreated control. Both the treated sample and the untreated control signals are normalized to the endogenous control (GAPDH), for which expression is not affected by treatment and expression is constant throughout the tissue being tested.
The level of mRNA expression relative to the positive control was calculated as follows: […]

OAT3 = target: T2, OAT3 (Homo sapiens, UniProt Q8TCC7); experiment: Transporter inhibition, uptake of [3H]-estrone-3-sulfate in HEK293 cells; format: in vitro ADME
T2 construct: host or cells: HEK293
T2 sequence (Q8TCC7 1-542): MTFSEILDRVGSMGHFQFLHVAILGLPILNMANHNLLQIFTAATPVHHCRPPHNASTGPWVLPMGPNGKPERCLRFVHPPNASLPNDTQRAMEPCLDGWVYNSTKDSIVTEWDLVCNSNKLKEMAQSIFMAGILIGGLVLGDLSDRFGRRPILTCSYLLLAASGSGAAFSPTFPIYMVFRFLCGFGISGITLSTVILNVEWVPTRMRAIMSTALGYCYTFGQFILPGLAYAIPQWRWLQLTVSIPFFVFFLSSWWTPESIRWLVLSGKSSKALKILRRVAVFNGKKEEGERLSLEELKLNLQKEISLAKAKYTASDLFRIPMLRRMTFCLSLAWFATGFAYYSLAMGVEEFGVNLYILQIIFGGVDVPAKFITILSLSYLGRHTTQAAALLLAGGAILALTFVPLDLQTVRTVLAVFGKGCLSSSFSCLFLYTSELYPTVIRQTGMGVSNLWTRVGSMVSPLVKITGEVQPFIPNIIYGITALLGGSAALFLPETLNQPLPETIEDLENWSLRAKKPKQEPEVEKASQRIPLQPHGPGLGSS
Experimental: as §1, §2

CCNC(C)Cc1cccc(C(F)(F)F)c1 (racemic) [FFA, (RS)‐ethyl(α‐methyl‐3‐trifluoromethylphenethyl)amine, reference compound] was tested, and the IC50 (OATP1B1) was greater than 300 µM, the “CYP2B6 induction (abstract)” value (CYP2B6 mRNA) was “up to 2.8 fold” and the “Basic kinetic model: Potential to induce” value (CYP2B6 mRNA; hepatocytes HC7‐8) was “No”. The “Static mechanistic model: Potential to induce” value (from here on “Static mechanistic model”) (CYP2B6 mRNA; hepatocytes HC7‐8) was “No (AUCR <0.8 to denote induction)”, the “Basic kinetic model: R3” value (CYP2B6 mRNA; hepatocytes HC7‐8) was 0.87 and the “Basic kinetic model: Potential to induce” value (CYP2B6 mRNA; hepatocytes HC10‐8) was “Yes”. For the same compound, the “Static mechanistic model” value (CYP2B6 mRNA; hepatocytes HC10‐8) was “No (AUCR <0.8 to denote induction)”, the “Basic kinetic model: R3” value (CYP2B6 mRNA; hepatocytes HC10‐8) was 0.77 and the “Basic kinetic model: Potential to induce” value (CYP2B6 mRNA; hepatocytes HC10‐10) was “Yes”. The “Static mechanistic model” value (CYP2B6 mRNA; hepatocytes HC10‐10) was “No (AUCR <0.8 to denote induction)”, the “Basic kinetic model: R3” value (CYP2B6 mRNA; hepatocytes HC10‐10) was 0.76 and the EC50 at 3 days (CYP2B6 mRNA; lot HC7-8, hepatocytes HC7‐8) was 8.32 ± 2.1 µM. The EC50 at 3 days (CYP2B6 mRNA; lot HC10-8, hepatocytes HC10‐8) was 13.6 ± 1.5 µM, the EC50 at 3 days (CYP2B6 mRNA; lot HC10-10, hepatocytes HC10‐10) was 4.61 ± 3.3 µM and the IC50 (OAT3) was greater than 30 µM.

In the case of CC(N)Cc1cccc(C(F)(F)F)c1.Cl (stereo not drawn) [nFFA, [1‐(3‐trifluoromethyl)phenyl]propan‐2‐amine hydrochloride], the IC50 (OATP1B1; HEK293, probe [3H]-estradiol-17β-glucuronide 50 nM, read-out: IC50) is reported as greater than 50 µM, the “CYP2B6 induction (abstract)” value (CYP2B6 mRNA) is reported as “up to 2.0 fold” and the “Basic kinetic model: Potential to induce” value (CYP2B6 mRNA; hepatocytes HC7‐8) is reported as “No”. The “Fold‐change method: Potential to induce” value (CYP2B6 mRNA; hepatocytes HC7‐8) was “Yes”, the “Static mechanistic model” value (CYP2B6 mRNA; hepatocytes HC7‐8) was “No (AUCR <0.8 to denote induction)” and the “Fold‐change method: Fold change” value (CYP2B6 mRNA; hepatocytes HC7‐8) was 2.15 fold. For the same compound, the “Basic kinetic model: R3” value (CYP2B6 mRNA; hepatocytes HC7‐8) was 0.92, the “Fold‐change method: % of control” value (CYP2B6 mRNA; hepatocytes HC7‐8) was 10.60% and the “Basic kinetic model: Emax (fold)” value (CYP2B6 mRNA; hepatocytes HC7‐8) was 1.14 ± 0.083 fold. For the same compound, the EC50 (CYP2B6 mRNA; hepatocytes HC7‐8) was 10.8 ± 2.3 µM, the “Basic kinetic model: Potential to induce” value (CYP2B6 mRNA; hepatocytes HC10‐8) was “No” and the “Fold‐change method: Potential to induce” value (CYP2B6 mRNA; hepatocytes HC10‐8) was “Yes”. For the same compound, the “Static mechanistic model” value (CYP2B6 mRNA; hepatocytes HC10‐8) was “No (AUCR <0.8 to denote induction)”, the “Fold‐change method: Fold change” value (CYP2B6 mRNA; hepatocytes HC10‐8) was 3.01 fold and the “Basic kinetic model: R3” value (CYP2B6 mRNA; hepatocytes HC10‐8) was 0.93. The “Fold‐change method: % of control” value (CYP2B6 mRNA; hepatocytes HC10‐8) was 21.20%, the “Basic kinetic model: Emax (fold)” value (CYP2B6 mRNA; hepatocytes HC10‐8) was 2.08 ± 0.197 fold and the EC50 (CYP2B6 mRNA; hepatocytes HC10‐8) was 26.4 ± 2.9 µM. The “Basic kinetic model: Potential to induce” value (CYP2B6 mRNA; hepatocytes HC10‐10) was “No”, the “Fold‐change method: Potential to induce” value (CYP2B6 mRNA; hepatocytes HC10‐10) was “Yes” and the “Static mechanistic model” value (CYP2B6 mRNA; hepatocytes HC10‐10) was “No (AUCR <0.8 to denote induction)”. The “Fold‐change method: Fold change” value (CYP2B6 mRNA; hepatocytes HC10‐10) was 2.54 fold, the “Basic kinetic model: R3” value (CYP2B6 mRNA; hepatocytes HC10‐10) was 0.88 and the “Fold‐change method: % of control” value (CYP2B6 mRNA; hepatocytes HC10‐10) was 21.60%. For the same compound, the “Basic kinetic model: Emax (fold)” value (CYP2B6 mRNA; hepatocytes HC10‐10) was 1.36 ± 0.11 fold, the EC50 (CYP2B6 mRNA; hepatocytes HC10‐10) was 8.81 ± 1.6 µM and the IC50 (OAT3; HEK293, probe [3H]-estrone-3-sulfate 50 nM, read-out: IC50) was greater than 50 µM.
